Data taken from patent publication US20260184663A1, “INDENE COMPOUNDS, PHARMACEUTICAL COMPOSITIONS THEREOF, AND THEIR THERAPEUTIC APPLICATIONS” (NucMito Pharmaceuticals co. Ltd., priority 2022, published 2026).
Where two headings read alike, the source gives them in different places.

How the values were obtained:
Type in all cases: cell-based
[1] = tested on: MDA-MB-231 (breast cancer); test: Antiproliferative activity (CCK-8 cell viability), MDA-MB-231; details: Homo sapiens, 72 h, read-out: Antiproliferative activity in cancerous cells, MDA-MB-231 (inhibition of cell growth); for inhibition at 3.3 µM: Compound concentration: 3.3 μM; for inhibition at 10 µM: Compound concentration: 10 μM; for inhibition at 30 µM: Compound concentration: 30 μM
Outline: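 MDA-MB-231 breast cancer cells, grown in DMEM with 10% FBS, were plated in 96-well plates at 2,000-5,000 cells/well. Once attached, they were exposed to compound and incubated at 37° C. for 72 h. Viability was then measured with CCK-8 (10 μL per well, 4 h at 37° C.) by absorbance at 450 nm, relative to DMSO vehicle wells.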

[2] = tested on: A549 (lung adenocarcinoma); test: Antiproliferative activity (CCK-8 cell viability), A549; details: Homo sapiens, 72 h, read-out: Antiproliferative activity in cancerous cells, A549 (inhibition of cell growth); for inhibition at 3.3 µM: Compound concentration: 3.3 μM; for inhibition at 10 µM: Compound concentration: 10 μM; for inhibition at 30 µM: Compound concentration: 30 μM
Outline: (§1)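 Cells grown in DMEM (HepG2, SW480), MEM (HeLa) or F-12K (A549), each with 10% FBS, then exposed to compound at 3.3, 10 or 30 μM for 72 h at 37 °C. CCK-8 absorbance at 450 nm; viability expressed as percent of DMSO-treated cells, graded as growth inhibition bands.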

HeLa (cervical cancer) = test: Antiproliferative activity (CCK-8 cell viability), HeLa; details: Homo sapiens, 72 h, read-out: Antiproliferative activity in cancerous cells, HELA (inhibition of cell growth); for inhibition at 3.3 µM: Compound concentration: 3.3 μM; for inhibition at 10 µM: Compound concentration: 10 μM; for inhibition at 30 µM: Compound concentration: 30 μM
Outline: as §1

SW480 (colon cancer) = test: Antiproliferative activity (CCK-8 cell viability), SW480; details: Homo sapiens, 72 h; for inhibition at 3.3 µM: Compound concentration: 3.3 μM; for inhibition at 10 µM: Compound concentration: 10 μM; for inhibition at 30 µM: Compound concentration: 30 μM
Outline: as §1

[3] = tested on: B16F10 (malignant melanoma); test: Antiproliferative activity (CCK-8 cell viability), B16F10; details: Mus musculus, 72 h, read-out: Antiproliferative activity in cancerous cells, B16F10 (inhibition of cell growth); for inhibition at 3.3 µM: B16-F10, Compound concentration: 3.3 μM; for inhibition at 10 µM: B16-F10, Compound concentration: 10 μM; for inhibition at 30 µM: B16-F10, Compound concentration: 30 μM
Outline: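 B16F10 melanoma cells grown in DMEM with 10% FBS were plated in 96-well plates at 2,000-5,000 cells/well. After attachment they were exposed to compound in medium for 72 h at 37° C. CCK-8 solution (10 μL) was then added, and after 4 h at 37° C absorbance was read at 450 nm.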

HepG2 (liver cancer) = test: Antiproliferative activity (CCK-8 cell viability), HepG2; details: Homo sapiens, 72 h, read-out: Antiproliferative activity in cancerous cells, HepG2 (inhibition of cell growth); for inhibition at 3.3 µM: Compound concentration: 3.3 μM; for inhibition at 10 µM: Compound concentration: 10 μM; for inhibition at 30 µM: Compound concentration: 30 μM
Outline: as §1

[4] = tested on: A431 (epidermoid carcinoma); test: Antiproliferative activity (CCK-8 cell viability), A431; details: Homo sapiens, 72 h; for inhibition at 3.3 µM: A-431, Compound concentration: 3.3 μM; for inhibition at 10 µM: A-431, Compound concentration: 10 μM; for inhibition at 30 µM: A-431, Compound concentration: 30 μM
Outline: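 A431 epidermoid carcinoma cells grown in DMEM with 10% FBS were plated at 2,000-5,000 cells/well in 96-well plates. After attachment they were exposed to compound at 3.3 μM, 10 μM, or 30 μM for 72 h at 37° C. Viability was then assessed by CCK-8 against DMSO vehicle-treated wells.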

[5] = read-out: Antiproliferative activity in cancerous cells, SW480 (inhibition of cell growth)
[6] = read-out: Antiproliferative activity in cancerous cells, A431 (inhibition of cell growth)

| SMILES | inhibition at 3.3 µM [1] [%] | inhibition at 10 µM [1] [%] | inhibition at 30 µM [1] [%] | inhibition at 3.3 µM [2] [%] | inhibition at 10 µM [2] [%] | inhibition at 30 µM [2] [%] | inhibition at 3.3 µM (HeLa (cervical cancer)) [%] | inhibition at 10 µM (HeLa (cervical cancer)) [%] | inhibition at 30 µM (HeLa (cervical cancer)) [%] | inhibition at 3.3 µM (SW480 (colon cancer); [5]) [%] | inhibition at 10 µM (SW480 (colon cancer); [5]) [%] | inhibition at 30 µM (SW480 (colon cancer); [5]) [%] | inhibition at 3.3 µM [3] [%] | inhibition at 10 µM [3] [%] | inhibition at 30 µM [3] [%] | inhibition at 3.3 µM (HepG2 (liver cancer)) [%] | inhibition at 10 µM (HepG2 (liver cancer)) [%] | inhibition at 30 µM (HepG2 (liver cancer)) [%] | inhibition at 3.3 µM [4, 6] [%] | inhibition at 10 µM [4, 6] [%] | also measured |
| --- | --- | --- | --- | --- | --- | --- | --- | --- | --- | --- | --- | --- | --- | --- | --- | --- | --- | --- | --- | --- | --- |
| CC1=C(CC(=O)O)c2cc(F)ccc2/C1=C\c1cccc(-c2ccc(C(F)(F)F)cc2)c1 [D1, (Z)-2-(5-Fluoro-2-methyl-1-((4′-(trifluoromethyl)-[1,1′-biphenyl]-3-yl)-methylene)-1H-inden-3-yl)acetic acid] | < 30 | ≥ 50 | ≥ 50 | < 30 | ≥ 50 | ≥ 50 | ≥ 50 | ≥ 50 | ≥ 50 | < 30 | ≥ 50 | ≥ 50 | < 30 | ≥ 50 | ≥ 50 | 30 to 50 | ≥ 50 | ≥ 50 | 30 to 50 | ≥ 50 | inhibition at 30 µM [4, 6]: ≥ 50% |
| CC1=C(CC(=O)O)c2cc(F)c(F)cc2/C1=C\c1ccc(COc2ccc(F)cc2)cc1 [B53, (Z)-2-(5,6-Difluoro-1-(4-((4-fluorophenoxy)methyl)benzylidene)-2-methyl-1H-inden-3-yl)acetic acid] | ≥ 50 | ≥ 50 | – | < 30 | 30 to 50 | – | < 30 | < 30 | – | 30 to 50 | 30 to 50 | – | 30 to 50 | ≥ 50 | – | < 30 | < 30 | – | 30 to 50 | 30 to 50 | inhibition at 30 µM (SW480 (colon cancer); read-out: Antiproliferative activity in cancerous cells, SW480): 30 to 50%; inhibition at 30 µM ([4]; read-out: Antiproliferative activity in cancerous cells, A431): 30 to 50% |
| CC1=C(CC(=O)O)c2cc(I)ccc2/C1=C\c1ccc(COCc2ccc(F)cc2)cc1 [B109, (Z)-2-(1-(4-(((4-Fluorobenzyl)oxy)methyl)benzylidene)-5-iodo-2-methyl-1H-inden-3-yl)acetic acid] | ≥ 50 | ≥ 50 | – | 30 to 50 | ≥ 50 | – | ≥ 50 | ≥ 50 | – | < 30 | ≥ 50 | – | < 30 | ≥ 50 | – | < 30 | ≥ 50 | – | < 30 | ≥ 50 | – |
| CC1=C(CC(=O)O)c2cc(Cl)c(Cl)cc2/C1=C/c1ccc(Oc2ccc(F)cc2)cc1 [E28, (E)-2-(5,6-Dichloro-1-(4-(4-fluorophenoxy)benzylidene)-2-methyl-1H-inden-3-yl)acetic acid] | ≥ 50 | ≥ 50 | ≥ 50 | ≥ 50 | ≥ 50 | ≥ 50 | ≥ 50 | ≥ 50 | ≥ 50 | < 30 | ≥ 50 | ≥ 50 | ≥ 50 | ≥ 50 | ≥ 50 | ≥ 50 | ≥ 50 | ≥ 50 | 30 to 50 | ≥ 50 | inhibition at 30 µM [4, 6]: ≥ 50% |
| COc1cc(Oc2ccc(F)cc2)ccc1/C=C1/C(C)=C(CC(=O)O)c2cc(F)ccc21 [C51, (Z)-2-(5-Fluoro-1-(4-(4-fluorophenoxy)-2-methoxybenzylidene)-2-methyl-1H-inden-3-yl)acetic acid] | 30 to 50 | ≥ 50 | – | 30 to 50 | 30 to 50 | – | 30 to 50 | ≥ 50 | – | 30 to 50 | ≥ 50 | – | ≥ 50 | ≥ 50 | – | < 30 | ≥ 50 | – | ≥ 50 | ≥ 50 | – |
